From patent US6579545B2, “Coated chewing gum products containing an antigas agent” (WM. Wrigley Jr. Company, priority 2000, dated 2003)

From the text: Analysis of a precipitated calcium carbonate having a median particle size of about 5 microns was done before and after being applied as a coating.

In the case of O=C([O-])[O-].[Ca+2] [precipitated calcium carbonate, calcium carbonate], the particle size (after preparing a suspension and applying it to a gum pellet for an antacid gum product) is reported as 4.9 microns and the median particle size (before coating) is reported as 5.1 microns.
